In US20090215777A1, “Pyrimidine Derivatives As HSP90 Inhibitors” (Astex Therapeutics Ltd., priority 2005, published 2009):

Target: T1, human Hsp90α N-terminal domain (Homo sapiens, UniProt P07900)
T1 construct: Cloning, expression, and purification of the Human Hsp90α N-terminal domain were performed according to published methods; made in house
Assay: Isothermal titration calorimetry (ITC)
Type: binding
Details: 25 mM Tris, 100 mM NaCl, 1 mM MgCl2, 1 mM TCEP, 5% DMSO, pH 7.4
Method: The ability of the compounds of the invention to bind to human Hsp90 proteins was determined using isothermal titration calorimetry.
Isothermal titration calorimetry (ITC) experiments were performed with a VP-ITC titration calorimeter (Microcal Inc., Northampton, Mass., USA). […] All solutions were filtered and degassed prior to a titration being carried out. The enthalpy change resulting from each injection of ligand was obtained through integration of the calorimetric signal. Data were analysed using Origin 7.0 (Microcal Software Inc., Northampton, Mass.). Heats of dilution were estimated using the final injections of each individual titration and subtracted before data fitting. Different ITC experimental formats were employed in order to obtain compound dissociation constants (Kd's) over a wide range of affinities. […] In this type of experiment the stoichiometry parameter (N) was locked at 1 for data fitting.

Compound | Kd [nM]
COc1cccc(OC)c1-c1cc(C)nc(N)n1 [Example 1, 4-(2,6-Dimethoxy-phenyl)-6-methyl-pyrimidin-2-ylamine] | < 10000
COc1cccc(OC)c1-c1cc(Cl)nc(N)n1 [Example 4, 4-Chloro-6-(2,6-dimethoxy-phenyl)-pyrimidin-2-ylamine] | < 1000
COc1cccc(OCC2CCOCC2)c1-c1cc(Cl)nc(N)n1 [Example 21, 4-Chloro-6-[2-methoxy-6-(tetrahydro-pyran-4-yl-methoxy)-phenyl]-pyrimidin-2-yl-amine] | < 1000
COc1cc(OC)c(-c2cc(Cl)nc(N)n2)c(OC)c1 [Example 27, 4-Chloro-6-(2,4,6-trimethoxy-phenyl)-pyrimidin-2-yl-amine] | < 1000
CCOc1ccc(-c2cc(Cl)nc(N)n2)c(Cl)c1 [Example 29] | < 1000
Nc1nc(Cl)cc(-c2ccc(Cl)cc2Cl)n1 [Example 30, 4-Chloro-6-(2,4-dichloro-phenyl)-pyrimidin-2-yl-amine] | < 1000
CCOc1ccc2ccccc2c1-c1cc(Cl)nc(N)n1 [Example 44, 4-Chloro-6-(2-ethoxy-naphthalen-1-yl)-pyrimidin-2-ylamine] | < 10000
COc1ccc(-c2ccccc2)c(OC)c1-c1cc(Cl)nc(N)n1 [Example 45, 4-Chloro-6-(2,4-dimethoxy-biphenyl-3-yl)-pyrimidin-2-ylamine] | < 10000
COc1ccc(-c2c(OC)ccc(Br)c2OC)c(OC)c1-c1cc(Cl)nc(N)n1 [Example 46, 4-(3′-Bromo-2,4,2′,6′-tetramethoxy-biphenyl-3-yl)-6-chloro-pyrimidin-2-ylamine] | < 1000
COc1cccc(OCC(C)C)c1-c1cc(Cl)nc(N)n1 [Example 47, 4-Chloro-6-(2-isobutoxy-6-methoxy-phenyl)-pyrimidin-2-ylamine] | < 1000
COc1cccc(OCCN2CCOCC2)c1-c1cc(Cl)nc(N)n1 [Example 48, 4-Chloro-6-[2-methoxy-6-(2-morpholin-4-yl-ethoxy)-phenyl]-pyrimidin-2-ylamine] | < 1000
COc1ccc(Cl)c(-c2cc(Cl)nc(N)n2)c1 [Example 49, 4-Chloro-6-(2-chloro-5-methoxy-phenyl)-pyrimidin-2-ylamine] | < 1000
Nc1nc(Cl)cc(-c2ccncc2Cl)n1 [Example 50, 4-Chloro-6-(3-chloro-pyridin-4-yl)-pyrimidin-2-ylamine] | < 1000
COc1ccc2ccccc2c1-c1cc(Cl)nc(N)n1 [Example 51, 4-Chloro-6-(2-methoxy-naphthalen-1-yl)-pyrimidin-2-ylamine] | < 1000
COc1cccc(OCCN2CCCCC2)c1-c1cc(Cl)nc(N)n1 [Example 52, 4-Chloro-6-[2-methoxy-6-(2-piperidin-1-yl-ethoxy)-phenyl]-pyrimidin-2-ylamine] | < 10000
CC(C)(C)OC(=O)NCCCOc1cccc(Cl)c1-c1cc(Cl)nc(N)n1 [Example 53, {3-[2-(2-Amino-6-chloro-pyrimidin-4-yl)-3-chloro-phenoxy]-propyl}-carbamic acid tert-butyl ester] | < 1000
CN(C)CCCOc1cccc(Cl)c1-c1cc(Cl)nc(N)n1 [Example 54] | < 1000
CN(C)CCOc1cccc(Cl)c1-c1cc(Cl)nc(N)n1 [Example 55, 4-Chloro-6-[2-chloro-6-(2-dimethylamino-ethoxy)-phenyl]-pyrimidin-2-yl amine] | < 1000
NCCOc1cccc(Cl)c1-c1cc(Cl)nc(N)n1 [Example 56, 4-[2-(2-Amino-ethoxy)-6-chloro-phenyl]-6-chloro-pyrimidin-2-yl-amine] | < 1000
CC(C)(C)OC(=O)NCCOc1cccc(Cl)c1-c1cc(Cl)nc(N)n1 [Example 57] | < 1000
COc1ccccc1-c1cc(C(F)F)nc(N)n1 [Example 58, 4-Difluoro-methyl-6-(2-methoxy-phenyl)-pyrimidin-2-ylamine] | < 30000
COc1cc(Cl)cc(Cl)c1-c1cc(Cl)nc(N)n1 [Example 59, 4-Chloro-6-(2,4-dichloro-6-methoxy-phenyl)-pyrimidin-2-ylamine] | < 1000
Nc1nccc(-c2ccc(Cl)cc2Cl)n1 [Example 60, 4-(2,4-Dichloro-phenyl)-pyrimidin-2-ylamine] | < 10000

Compound | Kd [nM]
COc1cc(-c2cc(Cl)nc(N)n2)c(Cl)cc1Cl [Example 61, 4-Chloro-6-(2,4-dichloro-5-methoxy-phenyl)-pyrimidin-2-ylamine] | < 1000
Nc1ncc(Br)c(-c2ccc(Cl)cc2Cl)n1 [Example 62, 5-Bromo-4-(2,4-dichloro-phenyl)-pyrimidin-2-ylamine] | < 30000
Nc1ncc(-c2cn[nH]c2)c(-c2ccc(Cl)cc2Cl)n1 [Example 63, 4-(2,4-Dichloro-phenyl)-5-(1H-pyrazol-4-yl)-pyrimidin-2-ylamine] | < 10000
Nc1nc(Cl)cc(-c2ccc(O)cc2Cl)n1 [Example 64, 4-(2-Amino-6-chloro-pyrimidin-4-yl)-3-chloro-phenol] | < 1000
CC(C)Oc1ccc(-c2cc(Cl)nc(N)n2)c(Cl)c1 [Example 65, 4-Chloro-6-(2-chloro-4-isopropoxy-phenyl)-pyrimidin-2-ylamine] | < 1000
CCOC(=O)COc1ccc(-c2cc(Cl)nc(N)n2)c(Cl)c1 [Example 66, [4-(2-Amino-6-chloropyrimidin-4-yl)-3-chloro-phenoxy]-acetic acid ethyl ester] | < 1000
CCOC(=O)C(C)Oc1ccc(-c2cc(Cl)nc(N)n2)c(Cl)c1 (stereo not shown) [Example 67] | < 1000
CCOC(=O)C(C)(C)Oc1ccc(-c2cc(Cl)nc(N)n2)c(Cl)c1 [Example 68, 2-[4-(2-Amino-6-chloro-pyrimidin-4-yl)-3-chloro-phenoxy]-2-methyl-propionic acid ethyl ester] | < 1000
COc1cccc(-c2cc(Cl)nc(N)n2)c1Cl [Example 69, 4-Chloro-6-(2-chloro-3-methoxy-phenyl)-pyrimidin-2-yl-amine] | < 1000
COc1cccc(-c2cc(Cl)nc(N)n2)c1OC [Example 70, 4-Chloro-6-(2,3-dimethoxy-phenyl)-pyrimidin-2-yl-amine] | < 1000
COc1c(CC(C)(C)C)cccc1-c1cc(Cl)nc(N)n1 [Example 71, 4-Chloro-6-[3-(2,2-dimethyl-propyl)-2-methoxy-phenyl]-pyrimidin-2-yl-amine] | < 1000
CC(C)(C)Cc1cccc(-c2cc(Cl)nc(N)n2)c1Cl [Example 72, 4-Chloro-6-[2-chloro-3-(2,2-dimethyl-propyl)phenyl]-pyrimidin-2-yl-amine] | < 1000
COc1ccc(-c2cc(Cl)nc(N)n2)c(Cl)c1 [Example 73, 4-Chloro-6-(2-chloro-4-methoxy-phenyl)-pyrimidin-2-ylamine] | < 1000
CN(C)CCOc1ccc(-c2cc(Cl)nc(N)n2)c(Cl)c1 [Example 74, 4-Chloro-6-[2-chloro-4-(2-dimethylamino-ethoxy)-phenyl]-pyrimidin-2-yl amine] | < 10000
CC(C#N)Oc1ccc(-c2cc(Cl)nc(N)n2)c(Cl)c1 (stereo not shown) [Example 75, 2-[4-(2-Amino-6-chloro-pyrimidin-4-yl)-3-chloro-phenoxy]-propionitrile] | < 1000
Cc1cccc(-c2cc(Cl)nc(N)n2)c1Cl [Example 76, 4-Chloro-6-(2-chloro-3-methyl-phenyl)-pyrimidin-2-yl-amine] | < 1000
Nc1nc(Cl)cc(-c2cc(O)c(Cl)cc2Cl)n1 [Example 77, 5-(2-Amino-6-chloro-pyrimidin-4-yl)-2,4-dichloro-phenol] | < 1000
Nc1nc(Cl)cc(-c2cc(OCc3ccccc3)c(Cl)cc2Cl)n1 [Example 78, 4-(5-Benzyloxy-2,4-dichloro-phenyl)-6-chloro-pyrimidin-2-yl-amine] | < 1000
CCN(CC)CCOc1cc(-c2cc(Cl)nc(N)n2)c(Cl)cc1Cl [Example 79, 4-Chloro-6-[2,4-dichloro-5-(2-diethylamino-ethoxy)-phenyl]-pyrimidin-2-yl-amine] | < 1000
Nc1nc(Cl)cc(-c2cc(OCCN3CCOCC3)c(Cl)cc2Cl)n1 [Example 80, 4-Chloro-6-[2,4-dichloro-5-(2-morpholin-4-yl-ethoxy)-phenyl]-pyrimidin-2-yl-amine] | < 1000
NC(=O)COc1cc(-c2cc(Cl)nc(N)n2)c(Cl)cc1Cl [Example 81, 2-[5-(2-Amino-6-chloro-pyrimidin-4-yl)-2,4-dichloro-phenoxy]-acetamide] | < 1000
CC(C)(C)OC(=O)N1CCC(COC(=O)C(C)(C)Oc2ccc(-c3cc(Cl)nc(N)n3)c(Cl)c2)CC1 [Example 82, 4-{2-[4-(2-Amino-6-chloro-pyrimidin-4-yl)-3-chloro-phenoxy]-2-methyl-propionyloxy-methyl}-piperidine-1-carboxylic acid tert-butyl ester] | < 1000
CC(C)(Oc1ccc(-c2cc(Cl)nc(N)n2)c(Cl)c1)C(=O)OCC1CCNCC1 [Example 83, 2-[4-(2-Amino-6-chloro-pyrimidin-4-yl)-3-chloro-phenoxy]-2-methyl-prop-ionic acid piperidin-4-ylmethyl ester] | < 1000
